This note sets out measurements from the OPERA property sets (Mansouri et al. 2018).

For `N#CC(C#N)=NNc1ccc(OC(F)(F)F)cc1`, the logP was 3.68. Molecule `CC(=O)c1ccc(NN=C(C#N)C#N)cc1` registered a lipophilicity (logP) of 2.1. The figure for `N#CC(C#N)=NNc1ccc(CCCl)cc1` is 3.58; for `N#CC(C#N)=NNc1cccc(O)c1` it is 2.28. The figure for `Cc1ccc(NN=C(C#N)C#N)cc1` is 3.2. The figure for `CC(=O)Nc1ccc(NN=C(C#N)C#N)cc1` is 1.83; for `N#CC(C#N)=NNc1cccc(Cl)c1` it is 3.38; for `N#CC(C#N)=NNc1ccccc1[N+](=O)[O-]` it is 2.9. With `N#CC(C#N)=NNc1ccc(Cl)cc1`, the log partition coefficient (logP) was determined as 3.39. To `N#CC(C#N)=NNc1ccc([N+](=O)[O-])cc1` belongs 2.37.
